The text below walks through data of paper PMC10197068 (Bioconjugate Chemistry, 2023).

The subject of assay [1] is G2T1 (DNA, G4) AGGGTTAGGGTTAGGGTTAGGGTTAGGGTTAGGGTTAGGGTTAGGG
Put plainly: CD melting at 295 nm. To be noted: 100 mM NaCl, 10 mM Li cacodylate, pH 7.3, 3 μM DNA.

The test system of assay [2] is G2T6 (DNA, G4) AGGGTTAGGGTTAGGGTTAGGGTTATTATTATTATTATTAGGGTTAGGGTTAGGGTTAGGG
In words: CD melting at 295 nm. To be noted: 100 mM NaCl, 10 mM Li cacodylate, pH 7.3, 3 μM DNA.

The mark [3] stands for this setting: 6 μM compound (12 μM salphen units).

By ΔTm is commonly meant the change in melting temperature against a reference sample. Take `C[N+](C)(C)CCOc1ccc(C=Nc2ccc(C(=O)NCc3cn(CC(=O)N[C@@H](CCCNC(=N)N)C(=O)N[C@@H](CCCCN)C(=O)N[C@@H](CCCCN)C(=O)N[C@@H](CCCNC(=N)N)C(=O)N[C@@H](Cn4cc(CNC(=O)c5ccc(N=Cc6ccc(OCC[N+](C)(C)C)cc6[O-])c(N=Cc6ccc(OCC[N+](C)(C)C)cc6[O-])c5)nn4)C(N)=O)nn3)cc2N=Cc2ccc(OCC[N+](C)(C)C)cc2[O-])c([O-])c1.[Pt+2].[Pt+2]`: the ΔTm in assay [1] (setting [3]) was determined as 16.3 °C; in assay [2] (setting [3]) it was 13.8 °C. Turning to `C[N+](C)(C)CCOc1ccc(C=Nc2ccc(C(=O)NCc3cn(CC(=O)N[C@@H](CCCNC(=N)N)C(=O)N[C@@H](CCCNC(=N)N)C(=O)N[C@@H](Cn4cc(CNC(=O)c5ccc(N=Cc6ccc(OCC[N+](C)(C)C)cc6[O-])c(N=Cc6ccc(OCC[N+](C)(C)C)cc6[O-])c5)nn4)C(N)=O)nn3)cc2N=Cc2ccc(OCC[N+](C)(C)C)cc2[O-])c([O-])c1.[Pt+2].[Pt+2]`, the ΔTm in assay [1] (setting [3]) was determined as 14.6 °C.

On to `C[N+](C)(C)CCOc1ccc(C=Nc2ccccc2N=Cc2ccc(OCC[N+](C)(C)C)cc2[O-])c([O-])c1.[Ni+2]`, for which the ΔTm in assay [1] (12 μM compound) is 16 °C; in assay [2] (12 μM compound), 17 °C. On the same counts, the results for `C[N+](C)(C)CCOc1ccc(C=Nc2ccccc2N=Cc2ccc(OCC[N+](C)(C)C)cc2[O-])c([O-])c1.[Pt+2]` are 21 °C and 19 °C.
